Experimental data reported in ChEMBL document CHEMBL2321872, “Synthesis and antimycobacterial activity of 2,1'-dihydropyridomycins” (ACS Med Chem Lett, 2013).
Converted amounts (≈) assume the structure as drawn.

System: Mycobacterium tuberculosis
Test: Antimycobacterial activity against Mycobacterium tuberculosis H37Rv assessed as growth inhibition after 7 days by resazurin method
Format: functional
Conditions: 168 h

Point of comparison: `CC(C)[C@H]1OC(=O)[C@H](C)[C@H](O)[C@H](Cc2cccnc2)NC(=O)[C@@H](NC(=O)c2ncccc2O)[C@@H](C)OC1=O`, MIC 1.56 µg/mL (≈ 2.95 µM). Against it:
- CC(C)[C@@H]1OC(=O)[C@H](C)[C@H](O)[C@H](Cc2cccnc2)NC(=O)[C@@H](NC(=O)c2ncccc2O)[C@@H](C)OC1=O — 8-fold higher, 12.5 µg/mL (≈ 23.6 µM)
- CC/C(C)=C1\OC(=O)[C@H](C)[C@H](O)[C@H](Cc2cccnc2)NC(=O)[C@@H](NC(=O)c2ncccc2O)[C@@H](C)OC1=O [PYRIDOMYCIN] — 4-fold lower, 0.39 µg/mL (≈ 0.721 µM)
